According to US7226761B2, “Manufacture of five-carbon sugars and sugar alcohols” (Danisco Sweeteners Oy, priority 1992, dated 2007):

Key:
[1] = system: TKL1 deficient strain H1764; experiment: Growth of TKL1 deficient strain on galactose plates containing D-xylulose; type: cell-based, Saccharomyces cerevisiae; settings: 2% galactose plates
Protocol: The genomic library of Z. rouxii was transformed into the TKL1 deficient strain of Saccharomyces cerevisiae (H1764, see example 12) and 10,000 independent clones were obtained. We have observed that the TKL1 deficient strain H1764 is unable to grow on 2% galactose plates containing 0.3% or higher concentrations of D-xylulose (probably due to toxic concentrations of 5-carbon sugar phosphates accumulating). The independent clones were plated with 0.5% D-xylulose (synthetic complete medium with 2% galactose, 0.5% xylulose and 3% xylose lacking leucine for selection of the library plasmid) and screened for complementation of growth on these plates.

strains H1915 and H1916 = settings: approximately 0.5 mM H2O2, 1.5 h; both strains
Protocol: Strains H1915 and H1916 were cultivated to logarithmic growth phase. The cells were collected and suspended into synthetic complete medium lacking histidine and uracil to an average density of OD600 20. Glucose was added to a final concentration of 20 g/l and a sample was taken immediately. The cells were incubated in a 30° C. shaker (250 rpm) for 2.5 h and the first sample was taken. Then H2O2 was added to a concentration of approximately 0.5 mM and incubation continued for an additional 1.5 h, when the second sample was taken. The OD600 was measured, cells were removed by centrifugation, and the growth medium samples were analyzed by HPLC (Waters device, Aminex HPX-87H Ion Exclusion Column, see example 17).

Compound	D-xylulose concentration at which the strain is unable to grow [1]	increase of total polyol and pentose production (strains H1915 and H1916)
O=C(CO)[C@@H](O)[C@H](O)CO [D-xylulose]	≥ 0.3%	–
OO [hydrogen peroxide]	–	2 fold
